System: ACh-induced bronchoconstriction
Test: Duration of bronchoprotection in guinea pig model of acetylcholine-induced bronchoconstriction
Format: in vivo
Settings: inhalation, 1.5 hours post-dose
Method: Determination of Duration of Bronchoprotection in Guinea Pig Model of Acetylcholine-Induced Bronchoconstriction
Groups of six male guinea pigs (Duncan-Hartley (HsdPoc:DH) Harlan, Madison, Wis.) weighing between 250 and 350 g were individually identified by cage cards. Throughout the study animals were allowed access to food and water ad libitum.
Test compounds were administered via inhalation over 10 minutes in a whole-body exposure dosing chamber (R&S Molds, San Carlos, Calif.). The dosing chambers were arranged so that an aerosol was simultaneously delivered to 6 individual chambers from a central manifold. Guinea pigs were exposed to an aerosol of a test compound or vehicle (WFI). […] This was measured gravimetrically by comparing pre- and post-nebulization weights of the filled nebulizer.
The bronchoprotective effects of test compounds administered via inhalation were evaluated using whole body plethysmography at 1.5, 24, 48 and 72 hours post-dose.
Forty-five minutes prior to the start of the pulmonary evaluation, each guinea pig was anesthetized with an intramuscular injection of ketamine (43.75 mg/kg), xylazine (3.50 mg/kg) and acepromazine (1.05 mg/kg). […] The depth of anesthesia was monitored and adjusted if the animal responded to pinching of its paw or if the respiration rate was greater than 100 breaths/minute. […]

## CN(CCN1CCC(OC(=O)Nc2ccccc2-c2ccccc2)CC1)C(=O)c1ccc(CNCc2ccc(O)cc2)cc1 [Example 1, Biphenyl-2-ylcarbamic Acid 1-[2-({4-[(4-Hydroxybenzylamino)methyl]benzoyl}methylamino)ethyl]piperidin-4-yl Ester]
  PD2(50) for ACh-induced bronchoconstriction: less than 200 μg/mL

Reference: US7851632B2, “Biphenyl compounds useful as muscarinic receptor antagonists” (Theravance, Inc., priority 2004, dated 2010)
